Reference: patent publication US20250332326A1, “METHOD OF GENERATING 3D POROUS HYBRID PROTEIN NANOSCAFFOLD” (Rutgers, The State University of New Jersey, priority 2024, published 2025)

What was measured:
[1] = test system: LPS-stimulated THP-1-derived macrophages; assay: qRT-PCR of inflammatory genes in LPS-stimulated macrophages co-cultured with scaffolds; assay type: cell-based, human; conditions: Transwell system, 50, 100, 200 μg/mL BETi loading
Protocol: THP-1 monocytes were purchased from ATCC® and cultured using standard protocol provided by the vendor (10% FBS in 1640 RPMI basal media supplemented with […] beta-mercaptoethanol). Media was refreshed every other day. THP-1 monocytes were cultured at a density of 100,000 to 500,000 cells per mL. When they proliferate above the density, cells were centrifuged down for media change. To convert suspension culture of THP-1 monocytes into adherent macrophages, 200 ng/ml of phorbol myristate acetate (PMA) was added into the media then split into 24 well plates at designated density (100,000 per well). PMA was treated for 1-3 days then fresh growth media without PMA was added. To stimulate the macrophages, 1,000 ng/mL lipopolysaccharide (LPS, Sigma Aldrich) was included in the media for 4 hours. Macrophages were converted from THP-1 monocytes through PMA activation. Then different scaffold conditions, including chitosan nanoscaffold, 3D-PHP nanoscaffold, and control (PBS only), as well as 3D-PHP nanoscaffold loaded with low (50 μg), medium (100 μg) and high (200 μg) dosages of BETi (JQ-1 from Tocris) drugs were added into the macrophage cultured followed by the addition of 1 μg/mL LPS for stimulation of macrophages. […] Cells were lysed with Trizol®, and then the lysates were stored at −80° C. until ready for use. […]

[2] = test system: rat nucleotomy disc injury model; assay: Rat nucleotomy disc injury model, histological and MRI analysis 6 WPI; assay type: in vivo
Protocol: Rats were anesthetized by injection of 2 mg/kg midazolam and 0.15 mg/kg medetomidine and butorphanol tartrate. After rats reached deep anesthesia, which was confirmed by tail pinching, posterior midline incision was performed at the Co6-7 level to expose the intervertebral disc. A no. 11 scalpel was used for the incision of posterior AF and the longitudinal cut was around 2 mm. […] After the nucleotomy, nanoscaffolds were pushed into the empty space using a micropipette tip. As controls, PBS was injected into the empty space after the nucleotomy. A heating pad was provided underneath the rats throughout the procedure and the rats were observed during recovery from the anesthesia.
MRI was performed on rats 6 WPI using a Bruker BioSpec (9.4 T) MRI scanner in order to investigate the regeneration of discs after the nucleotomy, which can be quantified by the signal intensities and water content through T2-weighted MRI. In the MRI study, time-to-repetition was set as 5,000 ms; time-toecho was set to 30 ms; and coronal axial planes were imaged for the rat discs. MRI index and signal intensities were used for the calculation of degree of damage of coccygeal disc tissues. Region of interest (ROI) was defined as the higher intensity area in the coronal plane and ROI was quantified using Fiji (Image J). MRI index was measured with blind tests by two independent observers.
At 6 WPI, animals were all sacrificed and disc tissues were harvested and fixed using 10% buffered formalin for one week. Decalcification was then performed using Rapid Cal Immuno™ (BBC biochemical) for another 2 weeks. Disc tissues were then paraffin-embedded and sectioned in the coronal directions with a Leica microtome. After dewaxing, rehydration, and permeabilization by methanol, H&E, immunohistofluorescent, and Safranin-O staining were performed on different sections. For H&E staining, tissue sections were stained in a solution with Mayer's Hematoxylin for 5 minutes then washed with water and counterstained in alcoholic solution of eosin for another minute without rinsing. […] For the Safranin-O staining, tissues were stained for 10 minutes by Weigert's iron hematoxylin solution followed by extensive washing with water. Then fast green solution was used for the second staining for 5 minutes followed by brief rinsing with 1% acetic acid solution and then stained with 0.1% Safranin-O solution. Afterwards, tissues were dehydrated and cleared using identical protocol as mentioned in the H&E staining. Safranin-O staining score was based on an 8-point scale previous used for IVD tissue analysis, and if no degenerative features were found a zero score was assigned. For the immunohistofluorescent and immunohistochemistry staining of inflammatory (e.g., MMP13 and IL1β), ECM (aggrecan, Collagen II) and pain (e.g., CGRP) markers, disc tissues with fixation and decalfication were first dewaxed, sectioned into 10 μm sections, and stained with primary antibodies followed by 24 hours incubation. After washing with PBS containing 0.1% Tween 20, the secondary antibodies were added and incubated for 2 hours. Finally, the nucleus was stained with DAPI for 15 minutes. Sections were then examined under a fluorescent or colorimetric microscope with a Zeiss 880 confocal microscope and Olympus microscope, respectively. ImageJ was used for quantification in an automatic manner.

Cc1sc2c(c1C)C(c1ccc(Cl)cc1)=N[C@@H](CC(=O)OC(C)(C)C)c1nnc(C)n1-2 [BETi, JQ1]
inflammatory responses (pro- and anti-inflammatory gene expression) [1]: significantly lowered the inflammatory responses | IL-1β expression (positive area, immunostaining) [2]: did not induce a significant reduction | MMP-13 levels (immunostaining) [2]: did not suppress | CGRP signals (pain marker, positive area ratio) ([2]; compared to injury alone): considerably less reduction | disc integrity / healthy disc tissue (H&E staining, MRI index) ([2]; implanted or injected on day of nucleotomy): slightly improved the restoration of the disc structure | up-regulation of Collagen II and aggrecan ([2]; result in words): did not result in noticeable up-regulation
